Source: US10537516B2, “Composition for treating skin pigmentation and related methods” (Access Business Group International LLC, priority 2017, dated 2020)
In brackets after ≈: the same amount, converted by molar mass. Several values for one entry are separate records, joined by “and”; a condition that tells them apart may be missing. Identical values can stand only once. Entries after “also recorded” stand apart in the source; their conditions may differ. Like-named read-outs stand apart in the source and are kept apart here. Marks after values point to notes of the source that are not given here.

Key:
B16-F10 cells [1] = experiment: Melanin elimination in forskolin/8-MOP pre-treated B16-F10 cells; type: cell-based, Mus musculus (mouse); settings: 72 hours, B16-F10 cells pre-treated with forskolin and 8-MOP; for % Melanin Elimination, skin treatment compound/plant extract: 100 μg/mL, average of two wells
Method: (§1) The effects of the present skin treatment compounds and plant extracts were evaluated in vitro using a B16-F10 (ATCC# CRL-6475) cell model. The B16-F10 cell model is a Mus musculus (mouse) melanoma skin cell line. The skin treatment compounds and plant extracts were evaluated for cell toxicity, inhibition of melanin synthesis, inhibition of tyrosinase enzyme activity, and elimination of existing melanin in B16-F10 cells. Tables 1 and 2 below list the 5 skin treatment compounds and 17 skin treatment plant extracts evaluated, respectively.
The ability of the skin treatment compounds and plant extracts to eliminate existing melanin within skin cells was evaluated. Melanin is the pigment in skin cells that is responsible for coloring of the skin and various pigmentation disorders, such as age spots and freckles. Elimination of existing melanin inside a cell may result in lightening of the skin color and/or inhibit further darkening of the skin color. […]
B16-F10 cells were trypsinized using Trypsin-EDTA and cell density was determined. The cell slurry was diluted to a concentration of 18,000 cells per milliliter (mL) in a growth media containing RPMI 1640 supplemented with fetal bovine serum. The diluted cell slurry was dispensed into the wells of a 24 well cell culture plate at 1 mL per well (18,000 cells/well). The cells were incubated overnight at 37° C. and 5% CO2 in humid conditions.
Following the overnight incubation, the medium was discarded and replaced with 1 mL per well of growth media including 50 μM forskolin (Sigma Cat. #F6886) and 10 μM 8-Methoxypsoralen (8-MOP; Alfa Aesar Cat. #A17108). The cells were then incubated for 72 hours at 37° C. and 5% CO2 in humid conditions.
The medium in each well was discarded and replaced with 1 mL/well. 5 μL of the 200× dilution was added to each well. The treated cells were incubated for 72 hours at 37° C. and 5% CO2 in humid conditions. The skin lightening compounds and plant extracts were evaluated at concentrations of 0 (untreated), 10, 50, and 100 μg/mL. […]
When the treatment period was completed, the medium from each well was discarded and the cells were washed once with 1 mL per well of DPBS. The DPBS wash was removed and 150 μL of 1N sodium hydroxide was added to each well for 30 minutes while the cells were incubated at 80° C. to lyse the cells. Next, 145 μL from each well was transferred to a UV plate and the remaining 5 μL was tested to determine the protein concentration. The UV absorbance of each well was determined using a plate reader with the primary wave length set to 400 nm.
Melanin elimination was determined using the UV absorbance at 400 nm according to the following equation: % Inh=(Max signal−Compound signal)/(Max signal−Min signal)×100
Where “% Inh” is the percent of melanin eliminated from the cell, the “Max signal” is the UV absorption for cells treated with forskolin and 8-MOP, and the “Min signal” is the UV absorption of untreated cells.

tyrosinase enzyme = biological target: T1, tyrosinase enzyme (Mus musculus, UniProt P11344); experiment: Tyrosinase enzyme activity inhibition in treated B16-F10 cells (L-DOPA); type: cell-based; settings: 72 hours
T1 construct: endogenous in cells; host or cells: B16-F10 (ATCC# CRL-6475) mouse melanoma cells
T1 sequence (P11344 19-533): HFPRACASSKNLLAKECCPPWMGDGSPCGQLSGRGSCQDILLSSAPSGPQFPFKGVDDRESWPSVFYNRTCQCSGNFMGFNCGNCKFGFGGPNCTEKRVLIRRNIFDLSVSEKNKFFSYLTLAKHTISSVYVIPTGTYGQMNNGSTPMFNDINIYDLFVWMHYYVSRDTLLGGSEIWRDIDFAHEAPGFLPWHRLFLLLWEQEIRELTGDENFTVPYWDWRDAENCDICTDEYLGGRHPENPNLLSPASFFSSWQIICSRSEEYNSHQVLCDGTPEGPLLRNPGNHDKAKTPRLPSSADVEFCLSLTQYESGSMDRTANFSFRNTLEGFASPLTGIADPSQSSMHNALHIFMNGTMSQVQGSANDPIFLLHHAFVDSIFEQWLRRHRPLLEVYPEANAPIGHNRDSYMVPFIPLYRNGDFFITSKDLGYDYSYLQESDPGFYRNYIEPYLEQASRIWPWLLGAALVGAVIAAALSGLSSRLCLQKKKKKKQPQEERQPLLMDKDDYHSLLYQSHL
Method: The ability of the skin treatment compounds and plant extracts to inhibit tyrosinase enzyme activity was evaluated. Tyrosinase enzyme is involved in melanin production and thus inhibition of tyrosinase may suppress melanin production, which may result in lightening of skin color and/or inhibition of further darkening of skin color. Arbutin is a conventional plant-derived compound used in skin lightening treatments and was therefore selected for use as a positive control. B16-F10 cells were trypsinized using Trypsin-EDTA and cell density was determined. The cell slurry was diluted to a concentration of 18,000 cells per milliliter (mL) in a growth media containing RPMI 1640 supplemented with fetal bovine serum. […] Arbutin was evaluated at concentrations of 0 (untreated), 25, 125, and 250 μg/mL. […] The UV absorbance of each well was determined using a plate reader with the primary wave length set to 475 nm. Tyrosinase inhibition was determined using the UV absorbance at 475 nm according to the following equation: % Inh=(Max signal−Compound signal)/(Max signal−Min signal)×100 Where “% Inh” is the percent inhibition of tyrosinase, the “Max signal” is the UV absorption for cells treated with L-DOPA, and the “Min signal” is the UV absorption of cells not treated with L-DOPA.

B16-F10 cells [2] = experiment: CellTiter-Glo (CTG) Luminescent Cell Viability Assay (cell toxicity); type: cell-based, Mus musculus (mouse); settings: for IC50: Mus musculus, read-out: IC50 cellular toxicity, skin treatment compound/plant extract
Method: The toxicity of the skin treatment compounds and plant extracts was evaluated using the CellTiter-Glo® (CTG) Luminescent Cell Viability Assay from Promega Corporation. The assay determines the number of viable cells in culture based on quantitation of the ATP present, which is indicative of the presence of metabolically active cells.
The CellTiter-Glo® reagent was added to the cells and the luminescence was obtained according to the assay instructions provided by Promega Corporation. The IC50 was calculated for each skin treatment compound or plant extract and the corresponding positive control.

B16-F10 cells [3] = experiment: Melanin synthesis inhibition in B16-F10 cells; type: cell-based, Mus musculus (mouse); settings: 100 μg/mL, 72 hours, average of two wells
Method: as §1
The ability of the skin treatment compounds and plant extracts to inhibit melanin synthesis was evaluated. Melanin is the pigment in skin cells that is responsible for coloring of the skin and various pigmentation disorders, such as age spots and freckles. Inhibition of melanin synthesis may result in lightening of the skin color and/or inhibit further darkening of the skin color. Arbutin is a conventional plant-derived compound used in skin lightening treatments and was therefore selected for use as a positive control.
B16-F10 cells were trypsinized using Trypsin-EDTA (GIBCO Cat. #25200-072) and cell density was determined. The cell slurry was diluted to a concentration of 18,000 cells per milliliter (mL) in a growth media containing RPMI 1640 (GIBCO Cat. #22400-089) supplemented with fetal bovine serum (GIBCO Cat. #10099-141). The diluted cell slurry was dispensed into the wells of a 24 well cell culture plate (BD Falcon Cat. #353047) at 1 mL per well (18,000 cells/well). The cells were incubated overnight at 37° C. and 5% CO2 in humid conditions.
The plated cells were treated by preparing a 200× dilution of each skin lightening compound, plant extract, and arbutin (i.e., the positive control; Sigma Cat. #A4256) in 100% dimethyl sulfoxide (DMSO; Sigma Cat. #D2650). 5 μL of the 200× dilution was added to each well. The treated cells were incubated for 72 hours at 37° C. and 5% CO2 in humid conditions. The skin lightening compounds and plant extracts were evaluated at concentrations of 0 (untreated), 10, 50, and 100 μg/mL. Arbutin was evaluated at concentrations of 0 (untreated), 25, 125, and 250 μg/mL.
When the treatment period was completed, the medium from each well was discarded and the cells were washed once with 1 mL per well of DPBS (Dulbecco's Phosphate-Buffered Saline; Biosera Cat. #LM-S2041). […] The UV absorbance of each well was determined using a plate reader with the primary wave length set to 400 nm.
Melanin synthesis inhibition was determined using the UV absorbance at 400 nm according to the following equation: % Inh=(Max signal−Compound signal)/(Max signal−Min signal)×100

[4] = B16-F10 cells, 72 hours, 0.01 to 100 ug/mL, CellTiter-Glo

| Compound | % Melanin Elimination, skin treatment compound/plant extract (B16-F10 cells [1]) | IC50 cellular toxicity, skin treatment compound/plant extract (B16-F10 cells [2]; [4]) | % Melanin Synthesis Inhibition, skin treatment compound/plant extract (B16-F10 cells [3]) | further results |
| --- | --- | --- | --- | --- |
| O=C(O)CCCC[C@@H]1CCSS1 (racemic) [Lipoic acid] | 65.7% | >100 mg/L | 30.3** % | % Tyrosinase Inhibition, skin treatment compound/plant extract (tyrosinase enzyme; 100 μg/mL, average of two wells): 98.6% |
| OC[C@H]1O[C@@H](Oc2ccc(O)cc2)[C@H](O)[C@@H](O)[C@@H]1O [Arbutin] | – | – | – | % Tyrosinase Inhibition (Arbutin) (tyrosinase enzyme; arbutin 125 μg/mL, control of the same line): 38.3% and 52.8% |
| CN[C@@H](C)[C@H]1[C@H](O)C[C@@]2(C)[C@@H]3CC[C@H]4C(C)(C)[C@@H](NC)CC[C@@]45C[C@@]35CC[C@]12C [Cyclovirobuxine D] | 92.4% | >100 mg/L | 53.2% | – |
| Oc1ccc(O)cc1 [Hydroquinone, reference compound] | – | – | – | % Melanin Elimination (hydroquinone control) (B16-F10 cells [1]; hydroquinone 100 μg/mL): 70.6%; IC50 cellular toxicity, Hydroquinone IC50 (corresponding positive control) (B16-F10 cells [2]; B16-F10 cells, 72 hours, hydroquinone positive control run with the substance of the same line): (7.0) μg/mL; also recorded: (4.2) μg/mL; also recorded: (4.1) μg/mL |
| COc1cc2c3c(c1OC)-c1ccccc1C[C@H]3N(C)CC2 [Nuciferine] | 34.1% | – | – | IC50 (B16-F10 cells [2]; B16-F10, 72 h): 62.2 mg/L (≈ 211 µM); inhibition at 100 µg/mL (B16-F10 cells [3]; Mus musculus, read-out: % Melanin Synthesis Inhibition, skin treatment compound/plant extract): 104% |
| C/C=C1/[C@H](O[C@@H]2O[C@H](CO)[C@@H](O)[C@H](O)[C@H]2O)OC=C(C(=O)OC)[C@H]1CC(=O)OCCc1ccc(O)c(O)c1 [Oleuropein] | 37.0% | – | – | IC50 (B16-F10 cells [2]; [4]): 90.3 mg/L (≈ 167 µM) |
| CC1=C2C[C@H]3[C@@H](CC(=O)[C@H]4C[C@@H](O)CC[C@@]43C)[C@@H]2CC[C@]12O[C@@H]1C[C@H](C)CN[C@H]1[C@H]2C [Peimisine] | 23.8% | >50 mg/L | 62.1% | – |
